The values below come from US5578445A, “In vitro method of evaluating the effects of a substance” (priority 1991, dated 1996).

One assay deals with T1, estrogen receptor (Homo sapiens, UniProt P03372).
T1 sequence (P03372 1-595): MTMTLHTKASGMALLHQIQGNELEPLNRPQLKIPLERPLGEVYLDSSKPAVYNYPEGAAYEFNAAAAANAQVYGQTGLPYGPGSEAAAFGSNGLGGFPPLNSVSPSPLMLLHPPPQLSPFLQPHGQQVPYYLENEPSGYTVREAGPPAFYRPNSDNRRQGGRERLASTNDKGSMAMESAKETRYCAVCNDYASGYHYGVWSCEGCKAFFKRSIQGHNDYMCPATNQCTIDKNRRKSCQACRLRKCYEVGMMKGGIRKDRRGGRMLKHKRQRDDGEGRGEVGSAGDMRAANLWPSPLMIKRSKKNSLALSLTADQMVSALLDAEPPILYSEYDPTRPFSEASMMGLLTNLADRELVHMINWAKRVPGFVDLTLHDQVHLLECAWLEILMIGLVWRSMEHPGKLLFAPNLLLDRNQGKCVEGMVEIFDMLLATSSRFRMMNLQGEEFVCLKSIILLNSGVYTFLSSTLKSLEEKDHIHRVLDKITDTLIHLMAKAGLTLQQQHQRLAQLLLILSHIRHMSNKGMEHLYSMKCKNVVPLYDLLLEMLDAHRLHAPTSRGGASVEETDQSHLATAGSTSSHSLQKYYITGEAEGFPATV
Kind of assay: Cathepsin D secretion, additional set of experiments, MCF7 in 96-well trays, Cath D RIA. The protocol:
The amount of Cath D secreted into the medium was determined with the aid of a commercial RIA (ELSA-CATD-D from CIS Bio-industries, Gif-sur-Yvette, France).
Samples of the cells ZR 75-1 and MCF7, respectively, were distributed into plastic petridishes (suitable for the culturing of mammalian cells).
Samples of the cells ZR 75-1 (4×10^4 cells/well) and MCF7 (2.5×10^4 cells/well), respectively, were distributed in 96-well trays. The cells were distributed in the same medium as used on day 1.
The wells were washed with 100 μl Coon's medium/well. The first medium was replaced by the second medium (B) without 1% FCS. The following hormone additions were made:
48 hours after the hormone addition the number of cells and their morphology were investigated. Medium from each well was transferred to Eppendorf tubes. The possible amount of Cath D in the medium samples was analyzed with the aid of a commercial Cath D RIA (ELSA-CATH-D).

The next assay has as its system MCF7. Kind of assay: Proliferation, amount of ATP after 6 days, MCF7.

On to `O=C(c1ccc(OCCN2CCCC2)cc1)c1c(-c2ccc(O)cc2)sc2cc(O)ccc12` [LY 117018], for which the “inhibition of the expression of Cath D” value against estrogen receptor (10 nM LY 117018 and 0.1 nM E2) is listed as “inhibited down to same level as in the absence of added hormone”. On estrogen receptor (10^-8 M LY 117018, presence of 10^-10 M E2), the “function on Cath D expression” value was “functions as an antagonist”. The “antagonist strength compared with Tamoxifen, Cath D” value at estrogen receptor (presence of 0.1 nM E2) is “stronger antagonist than Tamoxifen”. Further, the “influence on the Cath D secretion” value at estrogen receptor (substance alone, without E2) is listed as “do not have an influence”. Moreover, in the assay on MCF7 (Homo sapiens, MCF7, 144 h, read-out: relative amount of ATP (no hormone added = 1), MCF7, + 10^-6 M LY 117018, -E2, 6 days), the activity at 1 µM stood at 27%. The activity at 0.1 µM in the assay on MCF7 (Homo sapiens, MCF7, 144 h, read-out: relative amount of ATP (no hormone added = 1), MCF7, + 10^-7 M LY 117018, -E2, 6 days) was found to be 89%. Besides, in the assay with MCF7 (Homo sapiens, MCF7, 144 h, read-out: relative amount of ATP (no hormone added = 1), MCF7, + 10^-8 M LY 117018, -E2, 6 days), the activity at 0.01 µM amounted to 89%. Further, in the assay on MCF7 (Homo sapiens, MCF7, 144 h, read-out: relative amount of ATP (no hormone added = 1), MCF7, + 10^-9 M LY 117018, -E2, 6 days), the activity at 0.001 µM came out at 85%. Also, in the assay on MCF7 (MCF7, 0.1 nM E2 and 10 nM LY 117018), the inhibition of growth result is “inhibited down to the same level as in the absence of added hormone”. Further, in the assay with MCF7 (MCF7, 10^-7 M LY 117018, presence of 10^-10 M E2), the function on growth entry was “functions as an antagonist”. In the assay with MCF7 (MCF7, presence of 0.1 nM E2), the “antagonist strength compared with Tamoxifen, growth” value was “stronger antagonist than Tamoxifen”.
